Reference: patent US20010006966A1, “Use of 1- (aminoalkyl) -3-quinoxaline-2-on derivatives for the preparation of compounds having an antioxidant action” (priority 1998, published 2001)

How the values were obtained:
[1] = human, in vivo
skin cancer = assay: Prevention of skin cancer in UV-irradiated guinea pigs; type: in vivo; conditions: highly concentrated solution brushed on shaved neck; for cancer cells in tissue samples after two weeks of UV irradiation: UV-A, UV-B, UV-C at least two hours per day
Excerpt: Use of 1-(aminoalkyl)-3-quinoxaline-2-on derivatives for preventing skin cancer in guinea pigs.
A group of six guinea pigs was shaved in the neck region and exposed to intensive UV irradiation over a period of at least two hours per day. The UV irradiation contained portions of both UV-A and UV-B and UV-C rays. A highly concentrated solution of Caroverine.hydrochloride was brushed on the shaved neck regions of four of the six guinea pigs prior to the commencement of the first irradation, wherein attention was paid to that the distribution was effected as uniform as possible and over all of the irradiated zone.

[2] = Comparative kinetic studies with ABTA, hydroxyl radicals; type: biochemical; conditions: absence or presence of cerebral homogenate
Procedure: (§1) In respect of the antioxidative effect of 1-(aminoalkyl)-3-quinoxaline-2-on derivatives and in respect of their radical interceptor properties, in vitro tests were carried out with Caroverine and the specific radical intercepting reagent 2,2′-azino-bis(3-ethylbenz)thiazoline-6-sulfonic acid (ABTA) in order to compare the radical interceptor property of Caroverine with that of ABTA. In the presence of highly reactive radicals, ABTA is oxidized to the stable thiazoline cation radical ABTA^+. The intensive green color of that radical was photometrically measured with a main absorption band at 420 nm. […] Caroverine reacted rapidly with free hydroxyl, peroxyl and ABTA cation radicals, as was shown in comparative studies with ABTA in the absence and in the presence of cerebral homogenate. The rate constant for the reaction with hydroxyl radicals was 0.4×10^10 M/l/s and that for peroxyl radicals was 0.5×10^10 M/l/s, as was realized by comparative kinetic studies with ABTA in the absence or in the presence of cerebral homogenate (FIG. 6). […] In doing so, ABTA cation radical formation and reduction were applied, as already mentioned, in order to examine the single electron transfer reactions, since that substance enables direct measurements of radical formation and radical reduction on account of its color.

[3] = test system: advanced head and throat tumors; assay: Patients with advanced head and throat tumors, added to chemotherapy; type: in vivo, human; conditions: beside the regular chemotherapy
[4] = Treatment of patients suffering from Alzheimer's disease; type: in vivo, human; conditions: three weeks
Excerpt: By way of two male patients aged between 70 and 75 and suffering from Alzheimer's disease, the effect of Caroverine as a neuroregenerative substance was further investigated. The patients had average body weights of 75 kg and were in-patients. […] The time of treatment in each case was maintained for three weeks.

facial nerve = assay: Treatment of patients suffering from facial nerve paralysis; type: in vivo, human
Procedure: The neuroregenerative action of Caroverine was further investigated by way of two patients suffering from facial nerve paralysis. Two female patients suffering from a serious paralysis of the […] nerve were treated with Caroverine in the form of a combined cure over a period of 4 weeks, wherein, on the one hand, Caroverine was applied three times a day by intravenously administering 360 mg Caroverine each and the active substance, in addition, was administered in the form of a depot plaster containing 1000 mg Caroverine. The depot plaster was replaced once a week.

Ca2+ ion flux into cells = conditions: as stated in EP-A 0 032 564; cited from earlier work
carcinoma of the colon = assay: Patients with carcinoma of the colon, added to chemotherapy; type: in vivo, human; conditions: three patients; with Irinothekam and Oxaliplatine; day 1 i.v., other days 3×3 tablets a day
Excerpt: Three patients aged between 19 and 75 and suffering from carcinoma of the colon were additionally administered Caroverine beside the usual chemotherapy with Irinothekam and Oxaliplatine for the four-week period of chemotherapy, the administration on day 1 having been effected at an elevated dose, i.e., intravenously in physiological saline, and on the other days by administering 3×3 tablets a day.

[5] = Comparative studies of antioxidant and radical interceptor property; type: biochemical
Excerpt: wherein R is hydroxy, methoxy, ethoxy or hydrogen, or pharmaceutically acceptable salts thereof, for the preparation of compositions acting as antioxidants for preventing or treating diseases caused by free radicals of the oxygen cell metabolism, for stimulating the growth of nerve cells, antagonizing glutamate receptors and/or stimulating the growth of, in particular glutamatergic, nerve cells. […] Moreover, it has been shown in a surprising manner that specific 1-(aminoalkyl)-3-quinoxaline-2-on derivatives and, in particular, Caroverine are capable of antagonizing metabotropic glutamate receptors. Since glutamate receptors and, in particular, metabotropic glutamate receptors have been recognized as promoters or catalysts of intracellular metabolism, Caroverine and other 1-(aminoalkyl)-3-quinoxaline-2-on derivatives are capable of antagonizing, i.e., markedly retarding, in particular, that intracellular metabolism.
For that reason, Caroverine is supposed to be able to facilitate the repair of long-lived organic radicals and damaged biomolecules.

[6] = Speech and articulation capacity of a patient after a stroke; type: in vivo, human; conditions: 4×160 mg i.v. per day, 3 months, approximately 50% at beginning of treatment
Procedure: A patient suffering from serious speech impediments due to a stroke was intravenously administered Caroverine over a period of 3 months at an elevated dose of 4×160 mg Caroverine in physiological saline per day.

[7] = test system: metabotropic group I glutamate receptors; assay: Antagonism of metabotropic group I glutamate receptors in the ear of guinea pigs (behavior, ear electrodes); type: in vivo; conditions: 8 mg/kg into the vein of the ear
Procedure: Use of 1-(aminoalkyl)-3-quinoxaline-2-on derivatives as antagonists of the metabotropic group I glutamate receptors in the ear of guinea pigs.
A group of six guinea pigs was injected hydroxyphenyl glycerin as a receptor agonist into the ear, the receptor responding in a manner so as to strongly increase the auditory performance of the guinea pigs. […] Four of the six guinea pigs were subsequently injected a dose of 8 mg/kg body weight of the guinea pig into the vein of the ear and the behavior of the guinea pigs was observed. […] These behavioral peculiarities of the guinea pigs were also observed by applying electrodes to the ears of the animals, from whose measured data it could be readily read whether the exposure of the animals to unexpected noises caused excitement or not.

HIV = HIV replication in macrophages derived from monocytes; type: cell-based
[8] = ABTA cation radical formation and reduction, photometric at 420 nm; type: biochemical
Procedure: as §1

[9] = test system: metabotropic group I glutamate receptors; assay: Microelectrodes on the auditory nerve of the narcotized animal; type: in vivo, guinea pigs
Excerpt: Furthermore, the inhibiting influence of Caroverine on the metabotropic group I glutamate receptors was investigated on the narcotized animal by applying microelectrodes to the auditory nerve.

nerve cells = assay: In vitro tests for neuroregenerative effect; type: cell-based; conditions: low dosages, dosages known from the literature
[10] = Comparative kinetic studies with ABTA, peroxyl radicals; type: biochemical; conditions: absence or presence of cerebral homogenate
Procedure: as §1

auditory nerve = assay: Sound audiogram in patients with severe sudden loss of hearing / cochlear implant; type: in vivo, human
Procedure: By way of clinical examples, the efficacy of Caroverine (1-diethylaminoethyl-3-(p-methoxybenzyl)-1,2-dihydroquinoxaline-2-on) as a neuroregenerative substance was tested in two patients suffering from a severe sudden loss of hearing. In the enclosed diagram of FIG. 1, the sound audiogram of a patient is shown, the dot-and-dash line illustrating the sound audiogram after a sudden loss of hearing, the broken line illustrating the sound audiogram immediately upon commencement of the treatment, and the full line illustrating the patient's sound audiogram two weeks after the beginning of treatment, the patient over that period having been treated by the administration of an elevated dose of Caroverine. 240 mg Caroverine dissolved in 250 ml physiological saline were each slowly administered intravenously three times a day. […] A cochlear implant was not inserted.

[11] = Treatment of patients suffering from type I allergy (hay fever); type: in vivo, human; conditions: 5 hay fever patients, tablet 150 mg three times a day
Procedure: 5 patients, 2 female and 3 male patients, suffering from type I allergy, namely hay fever, were treated with Caroverine at the occurrence of allergical primary reactions, i.e., sneezing, cervical irritations as well as rhinorrhea. They each received one tablet containing 150 mg Caroverine three times a day.
For comparative reasons, two patients were treated with usual antihistamines, wherein both the primary manifestations of the allergy and, in particular, the secondary manifestations could not be suppressed immediately and completely such that the patients were suffering from their disease hay fever substantially as long as straining by the causers, namely grass pollens, was maintained. Nor was it possible to discontinue the administration of the medicament as long as pollen flight was observed.

[12] = Treatment of patients suffering from periodic schizophrenia; type: in vivo, human
Procedure: 4 patients, two female and two male patients, aged between 40 and 50 and suffering from periodic schizophrenia were treated with elevated doses of Caroverine during massive attacks. […] The treatment time was 7 days, 14 days and 21 days, respectively.

In the case of `CCN(CC)CCn1c(=O)c(Cc2ccc(O)cc2)nc2ccccc21` [1-diethylaminoethyl-3-(p-hydroxybenzyl)-1,2-dihydroquinoxaline-2-on], the “harmful side effects in test animals and patients” value [1] is reported as “without harmful side effects”, the “cancer cells in tissue samples after two weeks of UV irradiation” value (skin cancer) is reported as “identical result” and the “harmful side effects on the assayed cells” value (assayed cells) is reported as “without harmful side effects”.
With `CCN(CC)CCn1c(=O)c(Cc2ccc(OC)cc2)nc2ccccc21` [Caroverine, 1-diethylaminoethyl-3-(p-methoxybenzyl)-1,2-dihydroquinoxaline-2-on] the “rate constant for the reaction with hydroxyl radicals (FIG. 6)” value [2] was 0.4×10^10 M/l/s, the “harmful side effects in test animals and patients” value [1] was “without harmful side effects” and the “complete disappearance of head and throat tumors” value [3] was “No complete disappearance of the tumors was feasible”. For the same compound, the “tumor size, head and throat tumors” value [3] was “reduction of the tumor size”, the “condition of Alzheimer patients, lower dose” value ([4]; 160 mg in 250 ml saline i.v. three times a day) was “not as pronounced and sustained” and the “condition of Alzheimer patients at end of treatment” value ([4]; two male patients, 400 mg infusion three times a day) was “marked improvement in the conditions”. The “signs of facial paralysis on further extension of treatment” value (facial nerve; same regimen, extended period) was “additional reductions of the paralytical signs”, the “signs of facial paralysis after 2 weeks” value (facial nerve; two female patients, 360 mg i.v. three times a day plus depot plaster 1000 mg weekly) was “improvement in the signs of paralysis” and the “inhibition of the Ca2+ ion flux into cells” value (Ca2+ ion flux into cells) was “up to 50%”. The “colon carcinoma after four-week chemotherapy plus Caroverine” value (carcinoma of the colon) was “complete disappearance of the colon carcinoma”, the “harmful side effects on the assayed cells” value (assayed cells) was “without harmful side effects” and the “effectiveness relative to the known antioxidants Ascorbate, Trolox and Glutathione” value [5] was “at least three times as effective”. The “radical interceptor property relative to Melatonine” value [5] was “reach that of Melatonine”, the “articulation capacity after the end of treatment (FIG. 4)” value [6] was 100% and the “excitement upon unexpected noises, measured data of ear electrodes” value [7] was “excitement was effected not at all or only to an extremely slight extent”. The “behavior of guinea pigs upon noise after receptor agonist hydroxyphenyl glycerin” value ([7]; four of six guinea pigs) was “calmed down immediately”, the “replication of HIV in macrophages derived from monocytes” value (HIV) was “markedly reduced” and the “formation of the ABTA cation radical due to hydroxyl and peroxyl radicals (FIG. 5)” value ([8]; in the absence and in the presence of cerebral homogenate) was “able to inhibit the formation of the ABTA cation radical”. For the same compound, the “ABTA cation radical reduction” value ([8]; in the presence and in the absence of cerebral homogenate) was “catalyzes ABTA cation radical reduction”, the “activity as an electron donor” value ([8]; low, micromolar concentrations) was “highly active as an electron donor” and the “excitability of the metabotropic group I glutamate receptors” value [9] was “strongly suppressed”. For the same compound, the neuroregenerative effect (nerve cells) was “no neuroregenerative effect”, the “rate constant for the reaction with peroxyl radicals (FIG. 6)” value [10] was 0.5×10^10 M/l/s and the “improvement of hearing performance (sound audiogram, FIG. 2), low doses” value (auditory nerve; patient, 160 mg three times a day) was “little significant”. For the same compound, the “hearing performance (sound audiogram, FIG. 1)” value (auditory nerve; patient, 240 mg in 250 ml saline i.v. three times a day, two weeks) was “marked increase in the hearing performance”, the “hearing performance 0.125 to 2 kHz (sound audiogram, FIG. 2), high doses plus cochlear implant” value (auditory nerve; patient, 240 mg/250 ml saline four times a day, two weeks, cochlear implant inserted) was “nearly corresponds to the hearing performance of a healthy individual” and the “hearing performance 0.250 to 8 kH (sound audiogram, FIG. 3)” value (auditory nerve; patient, 300 mg in 500 ml saline each day, two weeks, no cochlear implant) was “essentially corresponds to the hearing performance of a healthy individual”. For the same compound, the “audition of patients carrying cochlear implants” value (auditory nerve; simultaneous administration with cochlear implant) was “clearly enhancing the audition”, the “secondary manifestations of the allergic reactions (cervical rubor and the like)” value [11] was “could be avoided” and the “primary reactions (sneezing, rhinorrhea and the like)” value ([11]; after two-day administration) was “completely disappeared”. The “persistence of the improvement beyond the treatment time” value ([12]; 400 mg infusion three times a day, 7, 14 or 21 days) was “only that patient whose treatment time was 21 days was successful even beyond the treatment time”, the “behavior of schizophrenia patients during treatment” value ([12]; 4 patients, 400 mg infusion three times a day, 7, 14 or 21 days) was “marked improvements in their behaviors” and the “behavior of schizophrenia patients, combination with Haloperidole” value ([12]; daily dose 240 mg or 400 mg Caroverine in combination with 10 mg Haloperidole) was “results analogous to those of the higher-dose administration of Caroverine”. For the same compound, the “serious side effects usual with psychopharmacological agents (apathetic conditions, weight gains)” value ([12]; schizophrenia patients) was “could be avoided”.
For `CCN(CC)CCn1c(=O)c(Cc2ccc(OC)cc2)nc2ccccc21.Cl` [Caroverine.hydrochloride], the “skin injuries after two weeks of UV irradiation” value (skin cancer) was “some reddening of the skin” and the “cancer cells in tissue samples after two weeks of UV irradiation” value (skin cancer) was “no cancer cells could be detected”.
